Molecules are shown by their SMILES. Like-named read-outs stand apart in the source and are kept apart here.

Assay type in all cases: biochemical
The target of test [1] is T1, human 20S proteasome (Homo sapiens, UniProt P28072).
T1 construct: human erythrocyte 20S proteasomes (AK-740, Biomol); purchased Biomol AK-740; host or cells: human erythrocytes
Put plainly: Proteasome inhibition assay, caspase-like activity (substrate Z-LLE-AMC). An excerpt: (§1) The Ki' value is defined as the apparent dissociation constant of the inhibitor. The Ki' value can be calculated from the IC50 value using the equation: Ki' = IC50 * Km / (S+Km), wherein S is the concentration of the substrate, and Km is the substrate concentration (in the absence of an inhibitor) at which the velocity of the reaction is half-maximal. The Ki' of an inhibitor for inhibition of a particular substrate (fixed Km) is constant.
As used herein, the term "caspase-like activity" refers to inhibition of the human 20S proteasome measured by the reduced proteolytic cleavage of the "caspase-lie" proteasome substrate Z-LLE-AMC.
(§2) Proteasome inhibition assays were performed with human erythrocyte 20S proteasomes (AK-740, Biomol) at 37 °C in 100 µL reaction volumes containing 2 µg ml^-1 20 proteasome and 100 µM Suc-LLVY-AMC as a substrate. Cleavage efficience in presence of varying inhibitor concentrations were followed by an MWGt Sirius HT plate reader (BIO-TEK instruments) equipped with 360 nm excitation and 460 nm emission filters. The obtained fluorescence values (RFU) were plotted versus time (t). The fluorescence data were fitted by the least squares method using SigmaPlot 10.0 software (Systat Software) to the equation f = f0 + Vst + [(vi - vs)/kobs][1-exp(-kobs*t)], where vi and vs are initial and final velocities, respectively, and kobs is the pseudo-first order associaten rate constant. Ki' values were then determined by plotting vi against inhibitor concentration [I]. Using SigmaPlot, the data were fitted with the hyperbolic equation vi = c + [v0/(Ki' + [I])] where v0 is the velocity of the control.
The inhibition of the caspase-like proteasome activity was performed in analogy to example 7 with using Z-LLE-AMC as a substrate instead of Suc-LLVY-AMC.

The target in test [2] is T2, human 20S proteasome (Homo sapiens, UniProt P28074).
T2 construct: human erythrocyte 20S proteasomes (AK-740, Biomol); purchased Biomol AK-740; host or cells: human erythrocytes
Description: Proteasome inhibition assay, chymotryptic activity (substrate Suc-LLVY-AMC).
From the text: as §1
As used herein, the term "chymotryptic activity" refers to inhibition of the human 20S proteasome measured by the reduced proteolytic cleavage of the "chymotryptic" proteasome substrate Suc-LLVY-AMC.
as §2

For test [3], the target named is T3, human 20S proteasome (Homo sapiens, UniProt Q99436).
T3 construct: human erythrocyte 20S proteasomes (AK-740, Biomol); purchased Biomol AK-740; host or cells: human erythrocytes
Description: Proteasome inhibition assay, tryptic activity (substrate Boc-LRR-AMC).
From the text: as §1
As used herein, the term "tryptic activity" refers to inhibition of the human 20S proteasome measured by the reduced proteolytic cleavage of the "tryptic" proteasome substrate Boc-LRR-AMC.
as §2
The inhibition of the tryptic proteasome activity was performed in analogy to example 7 with using Boc-LRR-AMC as a substrate instead of Suc-LLVY-AMC.

Turning to `COC(=O)[C@@H](NC(=O)N[C@H](C(=O)N[C@H]1/C=C/CCNC(=O)/C=C/[C@H](C(C)C)NC1=O)C(C)C)C(C)C` [Compound 1, SylA-OCH3], the Ki on human 20S proteasome [1] is more than 50000 nM; on human 20S proteasome [2], more than 100 nM; at human 20S proteasome [3] it was more than 100 nM.

With `CC(C)[C@H](NC(=O)N[C@H](C(=O)N[C@H]1/C=C/CCNC(=O)/C=C/[C@H](C(C)C)NC1=O)C(C)C)C(=O)NCCCCCNC(=O)c1ccc(-c2c3ccc(=[N+](C)C)cc-3oc3cc(N(C)C)ccc23)c(C(=O)[O-])c1` [Compound 2, SylA-Rhodamine], the Ki at human 20S proteasome [1] (read-out: caspase-like activity [Ki' value in nM], human erythrocyte 20S proteasomes, substrate Z-LLE-AMC, 37 °C, Ki' = apparent dissociation constant) was more than 50000 nM; on human 20S proteasome [2] (read-out: chymotryptic activity [Ki' value in nM], human erythrocyte 20S proteasomes, substrate Suc-LLVY-AMC 100 µM, 37 °C, Ki' = apparent dissociation constant), more than 100 nM; on human 20S proteasome [3] (read-out: tryptic activity [Ki' value in nM], human erythrocyte 20S proteasomes, substrate Boc-LRR-AMC, 37 °C, Ki' = apparent dissociation constant), more than 100 nM.

Regarding `COCCOCCNC(=O)[C@@H](NC(=O)N[C@H](C(=O)N[C@H]1/C=C/CCNC(=O)/C=C/[C@H](C(C)C)NC1=O)C(C)C)C(C)C` [Compound 3, SylA-PEG1], the Ki is more than 100 nM on human 20S proteasome [1], less than 20 nM on human 20S proteasome [2] and 20 to 100 nM at human 20S proteasome [3].

Consider `CCCCCCCCCCNC(=O)N[C@H](C(=O)N[C@H]1/C=C/CCNC(=O)/C=C/[C@H](C(C)C)NC1=O)C(C)C` [Compound 4, SylA-decanyl], for which the results for the Ki on human 20S proteasome [1], on human 20S proteasome [2] and at human 20S proteasome [3] were more than 100 nM, less than 20 nM and 20 to 100 nM, respectively.

Take `COCCOCCOCCNC(=O)N[C@H](C(=O)N[C@H]1/C=C/CCNC(=O)/C=C/[C@H](C(C)C)NC1=O)C(C)C` [Compound 5, SylA-PEG2]: the Ki on human 20S proteasome [1] is more than 100 nM; on human 20S proteasome [2] it was less than 20 nM; on human 20S proteasome [3], 20 to 100 nM.
